Experimental data reported in US10669269B2, “Substituted N-(1H-indazol-4-yl)imidazo[1,2-a]pyridine-3-carboxamide compounds as type III receptor tyrosine kinase inhibitors” (ARRAY BIOPHARMA INC., priority 2010, dated 2020).
Where a name gives a salt, the structure may show the parent alone.

How the values were obtained:
[1] = target: T1, c-KIT (Homo sapiens, UniProt P10721); assay: c-KIT Cell-Based Assay (Example D); settings: averaged IC50; phospho-c-KIT in M-07e cells stimulated with 150 ng/ml recombinant human SCF; read-out: cKIT Cell ELISA IC50
T1 construct: M-07e cells (human acute megakaryoblastic leukemia cell line) were serum-starved for 4 hours; endogenous in cells; host or cells: M-07e cells (human acute megakaryoblastic leukemia cell line)
T1 sequence (P10721 26-976): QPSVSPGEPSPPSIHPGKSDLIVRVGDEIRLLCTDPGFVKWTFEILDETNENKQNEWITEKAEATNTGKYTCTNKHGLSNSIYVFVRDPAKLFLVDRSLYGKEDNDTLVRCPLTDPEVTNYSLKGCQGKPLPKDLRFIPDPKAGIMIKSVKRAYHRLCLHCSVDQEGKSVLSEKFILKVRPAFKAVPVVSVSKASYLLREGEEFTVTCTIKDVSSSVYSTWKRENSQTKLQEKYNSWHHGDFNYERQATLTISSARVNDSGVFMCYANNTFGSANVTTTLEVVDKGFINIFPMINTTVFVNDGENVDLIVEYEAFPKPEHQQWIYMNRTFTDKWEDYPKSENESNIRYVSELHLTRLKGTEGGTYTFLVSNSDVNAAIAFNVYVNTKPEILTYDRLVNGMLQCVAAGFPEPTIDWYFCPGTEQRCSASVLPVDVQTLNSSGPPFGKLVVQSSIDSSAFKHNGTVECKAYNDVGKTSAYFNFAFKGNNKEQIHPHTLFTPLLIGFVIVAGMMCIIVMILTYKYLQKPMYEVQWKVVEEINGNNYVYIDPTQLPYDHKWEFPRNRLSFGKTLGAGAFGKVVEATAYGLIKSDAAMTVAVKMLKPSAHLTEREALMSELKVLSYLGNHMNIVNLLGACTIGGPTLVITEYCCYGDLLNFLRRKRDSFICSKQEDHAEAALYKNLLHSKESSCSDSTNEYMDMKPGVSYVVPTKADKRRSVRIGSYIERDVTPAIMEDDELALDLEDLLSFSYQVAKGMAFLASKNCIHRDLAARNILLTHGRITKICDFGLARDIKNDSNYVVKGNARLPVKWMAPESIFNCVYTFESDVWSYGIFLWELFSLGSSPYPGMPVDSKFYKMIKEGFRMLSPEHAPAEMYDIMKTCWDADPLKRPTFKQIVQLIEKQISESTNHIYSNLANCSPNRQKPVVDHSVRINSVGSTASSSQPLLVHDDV
Outline: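 M-07e cells serum-starved 4 h, treated 1 h with compound (9-point, 3-fold dilutions, top dose typically 5,000 nM) at 37° C, then stimulated 4 min with 150 ng/ml SCF. Phospho-c-KIT in lysates quantified by ELISA against a standard curve; IC50 from 4-parameter logistic fit as 50% of control.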

[2] = target: T2, cFMS (Homo sapiens, UniProt P07333); assay: cFMS Cell-Based Assay (Example C); settings: averaged IC50; phospho-cFMS in THP-1 cells stimulated with 250 ng/mL recombinant human MCSF; read-out: cFMS Cell ELISA IC50
T2 construct: THP-1 cells (human acute monocytic leukemia cell line) were serum-starved for 4 hours; endogenous in cells; host or cells: THP-1 cells (human acute monocytic leukemia cell line)
T2 sequence (P07333 20-972): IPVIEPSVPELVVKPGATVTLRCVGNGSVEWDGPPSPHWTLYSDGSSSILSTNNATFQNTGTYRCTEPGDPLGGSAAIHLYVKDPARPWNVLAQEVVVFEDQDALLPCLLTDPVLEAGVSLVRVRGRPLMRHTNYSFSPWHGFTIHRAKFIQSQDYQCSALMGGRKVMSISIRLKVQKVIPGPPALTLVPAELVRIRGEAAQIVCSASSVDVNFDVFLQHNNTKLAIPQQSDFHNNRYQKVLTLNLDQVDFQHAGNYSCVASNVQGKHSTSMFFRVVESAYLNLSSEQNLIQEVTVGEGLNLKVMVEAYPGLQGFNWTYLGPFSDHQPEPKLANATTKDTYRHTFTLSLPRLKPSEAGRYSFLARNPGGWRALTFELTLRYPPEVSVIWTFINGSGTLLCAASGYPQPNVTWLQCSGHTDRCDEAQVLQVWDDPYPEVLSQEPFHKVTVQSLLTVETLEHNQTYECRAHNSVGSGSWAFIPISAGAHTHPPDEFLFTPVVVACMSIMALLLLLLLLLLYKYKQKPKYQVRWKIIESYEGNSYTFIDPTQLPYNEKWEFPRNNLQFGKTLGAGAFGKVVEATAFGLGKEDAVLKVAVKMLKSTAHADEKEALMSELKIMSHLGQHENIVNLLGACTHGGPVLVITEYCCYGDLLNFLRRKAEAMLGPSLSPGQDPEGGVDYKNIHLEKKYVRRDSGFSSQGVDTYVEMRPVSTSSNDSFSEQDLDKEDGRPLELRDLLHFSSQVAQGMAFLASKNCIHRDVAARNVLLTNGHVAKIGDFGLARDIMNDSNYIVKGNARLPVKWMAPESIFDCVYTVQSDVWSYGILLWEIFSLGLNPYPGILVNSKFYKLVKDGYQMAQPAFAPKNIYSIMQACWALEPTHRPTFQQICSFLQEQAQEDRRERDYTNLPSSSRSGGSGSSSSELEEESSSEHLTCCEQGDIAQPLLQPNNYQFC
Outline: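 THP-1 cells serum-starved 4 h, then treated 1 h with compound (9-point, 3-fold series, top dose typically 5,000 nM) at 37 °C, then stimulated 1 min with 250 ng/mL recombinant human MCSF. Phospho-cFMS in lysates quantified by capture ELISA against a purified phospho-protein standard curve. IC50 at 50 percent of control, 4-parameter logistic fit.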

[3] = target: T3, PDGFR beta (Homo sapiens, UniProt P09619); assay: Phospho PDGFR Cell Assay, sandwich ELISA (Example A); format: cell-based; settings: averaged IC50, PDGFR beta phosphorylation in HS27 human fibroblast cell line, PDGF-BB stimulation 5 minutes
T3 construct: endogenous in cells; host or cells: HS27 human fibroblast cell line
T3 sequence (P09619 33-1106): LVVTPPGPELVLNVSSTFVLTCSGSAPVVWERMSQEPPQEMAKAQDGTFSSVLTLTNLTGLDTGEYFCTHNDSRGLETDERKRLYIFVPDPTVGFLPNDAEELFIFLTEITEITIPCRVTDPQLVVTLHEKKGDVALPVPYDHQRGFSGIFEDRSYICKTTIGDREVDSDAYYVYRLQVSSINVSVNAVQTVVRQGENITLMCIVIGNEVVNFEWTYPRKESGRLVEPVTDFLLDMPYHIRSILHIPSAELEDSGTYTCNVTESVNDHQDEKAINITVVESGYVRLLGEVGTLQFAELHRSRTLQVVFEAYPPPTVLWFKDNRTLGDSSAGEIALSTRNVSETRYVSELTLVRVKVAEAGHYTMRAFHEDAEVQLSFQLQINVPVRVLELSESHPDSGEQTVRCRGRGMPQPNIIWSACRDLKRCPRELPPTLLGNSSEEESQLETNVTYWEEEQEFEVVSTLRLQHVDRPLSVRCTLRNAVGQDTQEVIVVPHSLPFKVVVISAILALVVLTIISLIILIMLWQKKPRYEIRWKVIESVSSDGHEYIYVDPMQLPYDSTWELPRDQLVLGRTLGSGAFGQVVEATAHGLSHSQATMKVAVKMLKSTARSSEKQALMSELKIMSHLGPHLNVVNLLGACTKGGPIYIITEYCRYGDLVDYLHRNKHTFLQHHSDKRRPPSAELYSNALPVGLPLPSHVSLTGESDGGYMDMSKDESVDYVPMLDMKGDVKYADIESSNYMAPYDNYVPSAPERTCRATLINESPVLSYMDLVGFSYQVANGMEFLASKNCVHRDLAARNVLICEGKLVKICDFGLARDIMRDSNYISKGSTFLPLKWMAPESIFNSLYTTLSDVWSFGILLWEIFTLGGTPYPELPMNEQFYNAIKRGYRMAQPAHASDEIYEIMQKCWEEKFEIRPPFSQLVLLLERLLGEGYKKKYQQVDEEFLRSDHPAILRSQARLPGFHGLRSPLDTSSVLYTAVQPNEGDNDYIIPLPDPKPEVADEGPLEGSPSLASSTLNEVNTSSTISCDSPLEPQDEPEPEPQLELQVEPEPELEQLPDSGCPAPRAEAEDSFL
Protocol: Compounds were screened for inhibition of PDGFR beta phosphorylation in the HS27 human fibroblast cell line. Cells were seeded into a 96 well tissue culture plate, then incubated overnight in a 37° C., 5% CO2 incubator. The following day, cells were treated for one hour with test compound dilutions. After stimulation with PDGF-BB ligand for 5 minutes, cells were lysed and added to a sandwich ELISA plate from R&D Systems to detect levels of phospho PDGFR beta. A standard 4-parameter logistic model was fit to the inhibitor dose response curves, with the IC50 being defined as the concentration of inhibitor giving 50 percent of control (POC).

IC50 [1] [µM]	IC50 [2] [µM]	IC50 [3] [µM]	Structure (SMILES)
0.0437	0.0208	0.0409	Cc1nn(Cc2cccc(C(C)C)n2)c2cccc(NC(=O)c3cnc4cc(OCCN5C[C@@H](C)N(C)[C@@H](C)C5)ccn34)c12 [Example 7, N-(1-((6-Isopropylpyridin-2-yl)methyl)-3-methyl-1H-indazol-4-yl)-7-(2-((3S,5R)-3,4,5-trimethylpiperazin-1-yl)ethoxy)imidazo[1,2-a]pyridine-3-carboxamide]
0.0761	0.0108	0.0559	COCCN1CCN(CCOc2ccn3c(C(=O)Nc4cccc5c4c(C)nn5Cc4cccc(C5CC5)n4)cnc3c2)CC1 [Example 20, N-(1-((6-cyclopropylpyridin-2-yl)methyl)-3-methyl-1H-indazol-4-yl)-7-(2-(4-(2-methoxyethyl)piperazin-1-yl)ethoxy)imidazo[1,2-a]pyridine-3-carboxamide]
0.0466	0.012	0.123	CC(C)N1CCN(CCOc2ccn3c(C(=O)Nc4cccc5c4c(Cl)nn5Cc4cccc(C5CC5)n4)cnc3c2)CC1 [Example 21, N-(3-chloro-1-((6-cyclopropylpyridin-2-yl)methyl)-1H-indazol-4-yl)-7-(2-(4-isopropylpiperazin-1-yl)ethoxy)imidazo[1,2-a]pyridine-3-carboxamide]
0.0052	0.0067	0.0176	CC(C)N1CCN(CCOc2ccn3c(C(=O)Nc4cccc5c4c(F)nn5Cc4cccc(C5CC5)n4)cnc3c2)CC1 [Example 22, N-(1-((6-cyclopropylpyridin-2-yl)methyl)-3-fluoro-1H-indazol-4-yl)-7-(2-(4-isopropylpiperazin-1-yl)ethoxy)imidazo[1,2-a]pyridine-3-carboxamide]
0.0657	0.0211	0.239	C[C@H]1CN(CCOc2ccn3c(C(=O)Nc4cccc5c4c(Cl)nn5Cc4cccc(C5CC5)n4)cnc3c2)CCN1C [Example 23, (S)—N-(3-chloro-1-((6-cyclopropylpyridin-2-yl)methyl)-1H-indazol-4-yl)-7-(2-(3,4-dimethylpiperazin-1-yl)ethoxy)imidazo[1,2-a]pyridine-3-carboxamide]
0.0064	0.0068	0.0141	C[C@H]1CN(CCOc2ccn3c(C(=O)Nc4cccc5c4c(F)nn5Cc4cccc(C5CC5)n4)cnc3c2)CCN1C [Example 24, (S)—N-(1-((6-cyclopropylpyridin-2-yl)methyl)-3-fluoro-1H-indazol-4-yl)-7-(2-(3,4-dimethylpiperazin-1-yl)ethoxy)imidazo[1,2-a]pyridine-3-carboxamide]
0.0671	0.102	0.335	Cc1nn(Cc2cccc(C(C)(C)C)n2)c2cccc(NC(=O)c3cnc4cc(OCCN5CCN(C)[C@@H](C)C5)ccn34)c12 [Example 31, (S)—N-(1-((6-tert-butylpyridin-2-yl)methyl)-3-methyl-1H-indazol-4-yl)-7-(2-(3,4-dimethylpiperazin-1-yl)ethoxy)imidazo[1,2-a]pyridine-3-carboxamide]
0.0424	0.0242	0.0665	Cc1nn(Cc2cccc(C3CCC3)n2)c2cccc(NC(=O)c3cnc4cc(OCCN5CCN(C)[C@@H](C)C5)ccn34)c12 [Example 32, (S)—N-(1-((6-cyclobutylpyridin-2-yl)methyl)-3-methyl-1H-indazol-4-yl)-7-(2-(3,4-dimethylpiperazin-1-yl)ethoxy)imidazo[1,2-a]pyridine-3-carboxamide]
0.0226	0.0415	0.0658	Cc1nn(Cc2cccc(C3CCCC3)n2)c2cccc(NC(=O)c3cnc4cc(OCCN5CCN(C)[C@@H](C)C5)ccn34)c12 [Example 33, (S)—N-(1-((6-cyclopentylpyridin-2-yl)methyl)-3-methyl-1H-indazol-4-yl)-7-(2-(3,4-dimethylpiperazin-1-yl)ethoxy)imidazo[1,2-a]pyridine-3-carboxamide]
0.924	0.0194	0.431	Cc1cccc(Cn2nc(C)c3c(NC(=O)c4cnc5cc(OCCN6CCN(C)[C@@H](C)C6)ccn45)cccc32)n1 [Example 35, (S)-7-(2-(3,4-dimethylpiperazin-1-yl)ethoxy)-N-(3-methyl-1-((6-methylpyridin-2-yl)methyl)-1H-indazol-4-yl)imidazo[1,2-a]pyridine-3-carboxamide]
0.119	0.012	0.0656	CCc1cccc(Cn2nc(C)c3c(NC(=O)c4cnc5cc(OCCN6CCN(C)[C@@H](C)C6)ccn45)cccc32)n1 [Example 36, (S)-7-(2-(3,4-dimethylpiperazin-1-yl)ethoxy)-N-(1-((6-ethylpyridin-2-yl)methyl)-3-methyl-1H-indazol-4-yl)imidazo[1,2-a]pyridine-3-carboxamide]
0.062	0.0524	0.102	CCC(C)c1cccc(Cn2nc(C)c3c(NC(=O)c4cnc5cc(OCCN6CCN(C)[C@@H](C)C6)ccn45)cccc32)n1 (stereo partly drawn) [Example 37, N-(1-((6-sec-butylpyridin-2-yl)methyl)-3-methyl-1H-indazol-4-yl)-7-(2-((S)-3,4-dimethylpiperazin-1-yl)ethoxy)imidazo[1,2-a]pyridine-3-carboxamide]
0.337	0.0154	0.253	CCCc1ccc(Cn2nc(C)c3c(NC(=O)c4cnc5cc(OCCN6CCN(C)[C@@H](C)C6)ccn45)cccc32)nc1 [Example 38, (S)-7-(2-(3,4-dimethylpiperazin-1-yl)ethoxy)-N-(3-methyl-1-((5-propylpyridin-2-yl)methyl)-1H-indazol-4-yl)imidazo[1,2-a]pyridine-3-carboxamide]
0.188	0.0357	0.068	Cc1nn(Cc2ccc(C(C)C)cn2)c2cccc(NC(=O)c3cnc4cc(OCCN5CCN(C)[C@@H](C)C5)ccn34)c12 [Example 39, (S)-7-(2-(3,4-dimethylpiperazin-1-yl)ethoxy)-N-(1-((5-isopropylpyridin-2-yl)methyl)-3-methyl-1H-indazol-4-yl)imidazo[1,2-a]pyridine-3-carboxamide]
0.095	0.0558	0.0372	Cc1nn(Cc2cccc(CC(C)C)n2)c2cccc(NC(=O)c3cnc4cc(OCCN5CCN(C)[C@@H](C)C5)ccn34)c12 [Example 40, (S)-7-(2-(3,4-dimethylpiperazin-1-yl)ethoxy)-N-(1-((6-isobutylpyridin-2-yl)methyl)-3-methyl-1H-indazol-4-yl)imidazo[1,2-a]pyridine-3-carboxamide]
0.0872	0.0971	0.0196	Cc1nn(Cc2ccc(F)c(C(C)C)n2)c2cccc(NC(=O)c3cnc4cc(OCCN5CCN(C)[C@@H](C)C5)ccn34)c12 [Example 41, (S)-7-(2-(3,4-dimethylpiperazin-1-yl)ethoxy)-N-(1-((5-fluoro-6-isopropylpyridin-2-yl)methyl)-3-methyl-1H-indazol-4-yl)imidazo[1,2-a]pyridine-3-carboxamide]
0.0589	0.0234	0.0845	Cc1nn(Cc2cccc(C3CC3)n2)c2ccc(F)c(NC(=O)c3cnc4cc(OCCN5CCN(C)[C@@H](C)C5)ccn34)c12 [Example 43, (S)—N-(1-((6-cyclopropylpyridin-2-yl)methyl)-5-fluoro-3-methyl-1H-indazol-4-yl)-7-(2-(3,4-dimethylpiperazin-1-yl)ethoxy)imidazo[1,2-a]pyridine-3-carboxamide]
0.0425	0.0224	0.0214	Cc1nn(Cc2cccc(C(C)C)n2)c2cccc(NC(=O)c3cnc4cc(OCCN5CCN[C@@H](C)C5)ccn34)c12 [Example 46, (S)—N-(1-((6-isopropylpyridin-2-yl)methyl)-3-methyl-1H-indazol-4-yl)-7-(2-(3-methylpiperazin-1-yl)ethoxy)imidazo[1,2-a]pyridine-3-carboxamide]
0.687	0.0099	0.394	Cc1cccc(Cn2nc(C)c3c(NC(=O)c4cnc5cc(C6=CCNCC6)ccn45)cccc32)n1 [Example 51, N-(3-methyl-1-((6-methylpyridin-2-yl)methyl)-1H-indazol-4-yl)-7-(1,2,3,6-tetrahydropyridin-4-yl)imidazo[1,2-a]pyridine-3-carboxamide hydrochloride]
5	0.108	≥ 1	Cc1cccc(Cn2nc(C)c3c(NC(=O)c4cnc5cc(C6CCNCC6)ccn45)cccc32)n1 [Example 52, N-(3-methyl-1-((6-methylpyridin-2-yl)methyl)-1H-indazol-4-yl)-7-(piperidin-4-yl)imidazo[1,2-a]pyridine-3-carboxamide tri-hydrochloride]
